According to US20110129450A1, “METHOD OF PROMOTING NEUROGENESIS BY MODULATING SECRETASE ACTIVITIES” (priority 2008, published 2011):
“Also recorded” adds a separate entry of the source.

How the values were obtained:
PS1 = experiment: Immunoblot of PS1 expression in N2a cells transduced with lentiviral vector; type: cell-based, murine; details: N2a cells five days following transduction, versus GFP only or irrelevant siRNA; FIG. 6A
Source text: PS1 siRNA lentiviruses were verified by immunoblot analysis for the reduction of PS1 protein expression in N2a cells transduced with the lentiviral vector. N2a cells were transduced with the purified shRNA vector preparation followed by immunoblot analysis using anti-PS1 polyclonal antibody (Lazarov et al., 2005, J. Neurosci. 25: 2386-95.). Presenilins undergo cleavage in an alpha helical region of one of the cytoplasmic loops to produce a larger N-terminal (“PS1 NTF”) and a smaller C-terminal fragment which together form part of the functional protein. […] PS1 siRNA 4-11 (lane 1) refers to a different PS1 siRNA construct having the siRNA sequence of 5′ GGACCAACTTGCATTCCAT 3′ (SEQ ID NO:18) under the U6 promoter. The samples in lanes 6 and 7 were brain extracts of transgenic mice harboring PS1HWT (wild type human PS1; lane 6) and PS1ΔE9 (human PS1 with exon 9 deleted; lane 7), both of which served as positive controls for PS1 detection.

[1] = test system: neural stem cells isolated from the SVZ of adult wild type mice; experiment: BrdU proliferation assay of neurosphere cultures treated with ADAM inhibitor; type: cell-based; details: treated 48 hours, compared to inactive analog GM6001NK; FIG. 3A
Protocol: The role for α-secretase in regulating proliferation of NSCs was examined. Neurosphere cultures were established from neural stem cells isolated from the SVZ of adult wild type mice. […] Thereafter, cells were pulse-labeled with 5 μM BrdU for 24 hours before fixation in 4% paraformaldehyde (PFA). The fixed cells were incubated with anti-BrdU antibodies and then HRP-conjugated secondary antibodies, followed by incubation with the TMD peroxidase substrate (Pierce Protein Research Products, Thermo Scientific, Rockford, Ill.). Signals were detected using a plate reader at 450-595 nm.

[2] = test system: neurospheres derived from adult mice neural stem cells; experiment: Neurosphere diameter assay of singly dissociated adult NSCs plated for 8 days; type: cell-based; details: FIG. 4
Source text: Both α- and β-secretases can cleave membrane-bound APP and release the secreted form of APP (sAPP). Proteolytic cleavage of APP by α-secretase releases one form of the secreted APP referred to as sαAPP, whereas cleavage of APP by β-secretase releases a C-terminally truncated sAPP referred to as sβAPP. The significance and difference in the functionality of these two forms of sAPP remains elusive. To distinguish the role of the α or β form of sAPP in promoting neural stem cell proliferation, neurospheres derived from adult mice neural stem cells were dissociated to single cells, plated for 8 days, treated with GM6001 or GM6001NK alone, treated with GM6001 and supplemented with conditioned media from neuroblastoma N2a cells expressing wild type APP, or treated with GM6001 and supplemented with conditioned media from 192 Swe N2a cells. Media conditioned by the neuroblastoma N2a was enriched in sαAPP as the wild type APP expressed in these cells was preferentially processed by α-secretase to produce sαAPP. The 192 Swe N2a conditioned medium was enriched in sβAPP as the 192 Swe N2a cells expressing the Swedish mutant form of APP that was preferentially cleaved by β-secretase. See Bogdanovic et al., 2001, Dement Geriatr. Congn. Discord. 12:364-70.

sAPP = experiment: Immunoblot of sAPP in conditioned media of treated NSC (22C11 antibody); type: cell-based, mice; details: NSC cultures, versus GM6001NK; FIG. 3B
Source text: APPWT CM represents proliferation results of GM6001-treated cells supplemented with APPWT-conditioned media. (B) Immunoblot analysis of sAPP levels in conditioned media from GM6001- and GM6001NK-treated NSC using the 22C11 antibody.
Results were obtained as percentages of BrdU positive cells in GM6001-treated culture over BrdU positive cells in the control culture treated with DMSO (FIG. 3A). […] To examine the possibility that reduced proliferation was a result of reduced levels of sAPP, GM6001-treated cells were supplemented with conditioned media of neurospheres derived from APPWT mice, in which the α-secretase cleavage product sαAPP was present. […] The secretion levels of sAPP were also examined by immunoblot analysis in the conditioned media of GM6001- or GM6001NK-treated cells.

[3] = test system: neurospheres from the SVZ of adult mice; experiment: BrdU proliferation assay of neurospheres (γ-secretase inhibitor or lentiviral siRNA); type: cell-based; details: 1 μM for 24 hours; FIG. 8A
Protocol: To further establish that reduced expression of PS1 decreased neural stem cell proliferation and induced neural stem cell differentiation, neurospheres established as described above from the SVZ of adult mice were subject to a proliferation assay following the treatment with the γ-secretase inhibitor L-685,458 (1 μM for 24 hours) (Sigma, St. Louis, Mo.). As a comparison, neurospheres were transduced with lentiviral vectors expressing either IR siRNA or PS1 siRNA. The proliferation assay was performed as follows: lentivirally-transduced neurospheres or γ-secretase inhibitor-treated neurospheres were singly dissociated and cultured (10,000 cells/well) with BrdU for 48 hours. BrdU-labeled cells were fixed in 4% PFA and immunolabeled with anti-BrdU antibodies followed by HRP-conjugated secondary antibodies. Thereafter, the cells were incubated with the TMD peroxidase substrate and read on a plate reader at 450-595 nm. […] Results were presented as a percentage of DMSO-treated NSCs.

neural stem cells = experiment: Neural stem cell differentiation assay on poly-L-ornithine/laminin; type: cell-based, mice
Protocol: The effects of γ-secretase inhibitor L-685,458 on neural stem cell differentiation was analyzed. Neural stem cells were allowed to differentiate when cultured on glass coverslips coated with 10 μg/mL poly-L-ornithine (Sigma, St. Louis, Mo.) and 5-10 μg/mL laminin (Sigma) in media with 5% fetal bovine serum without EGF and FGF.
γ-secretase inhibitor L-685,458-induced differentiation was further analyzed by immunostaining using antibodies to the astrocyte marker GFAP, and the early neural marker nestin. […] Scale bar=[…] (FIG. 8E, representative GFAP staining is marked with single arrows).
The length of the processes developed from the middle of the soma to the axon tip of GFAP positive cells after two days of L-685,458 treatment was analyzed and the results are shown in FIG. 8G. Twenty four hours after culturing whole neurospheres on laminin, vehicle-treated cultures remained mostly as neurospheres with slight cell differentiation (FIG. 8F, top panels).

With “5′ GGACCAACTTGCATTCCAT 3′ (expressed or natural sequence) [PS1 siRNA 4-11]” the PS1 expression (PS1) was “reduced”.
In the case of `CNC(=O)[C@H](Cc1c[nH]c2ccccc12)NC(=O)[C@@H](CC(=O)NO)CC(C)C` [GM6001], the “BrdU immunoreactivity (BrdU positive cells relative to DMSO control)” value [1] is reported as “Reduced BrdU immunoreactivity”, the “average diameter of neurospheres” value [2] is reported as “reduced the average diameter of neurospheres” and the “levels of secreted sAPP in conditioned media” value (sAPP) is reported as “reduced”.
With `CC(C)C[C@H](NC(=O)[C@H](Cc1ccccc1)C[C@@H](O)[C@H](Cc1ccccc1)NC(=O)OC(C)(C)C)C(=O)N[C@@H](Cc1ccccc1)C(N)=O` [L-685,458] the “BrdU+ immunoreactivity (percentage of DMSO-treated NSCs)” value [3] was “Reduced BrdU+ immunoreactivity; also recorded: reduced neural stem cell proliferation”, the GFAP immunostaining (neural stem cells; FIG. 8E) was “Positive staining of GFAP” and the “neural progenitor cell differentiation” value (neural stem cells; differentiation medium, compared to DMSO, FIGS. 8B-8F) was “induced neural progenitor cell differentiation”. For the same compound, the “immunostaining for β-tubulin and GFAP” value (neural stem cells; neurospheres on laminin, FIG. 8F) was “increased immunostaining for both β-tubulin and GFAP”, the “differentiation of whole neurospheres cultured on laminin” value (neural stem cells; twenty four hours on laminin, FIG. 8F) was “extensive differentiation” and the “number of differentiated cells” value (neural stem cells; two-day treatment, compared to control, FIG. 8C) was “increased number of differentiated cells”. The “number of GFAP+Nestin+DCX+ cells” value (neural stem cells; two-day treatment, compared to control, FIG. 8H) was “dramatically decreased; also recorded: decrease” and the “number of neurospheres formed from singly-dissociated neurosphere cells” value (neural stem cells; two-day treatment, compared with control, FIG. 8D) was “reduced number of neurospheres”.
